Tests used:
[1] = biological target: T1, HIV-1 integrase (Human immunodeficiency virus type 1 group M subtype B, UniProt P04585); assay: In vitro integrase assay; format: biochemical; details: 10 µM
T1 construct: purchased XpressBio
Protocol: (§1) Fig 5 (A) Time-of-addition assay. […] Subsequently, the cells were treated with the compounds at the indicated time points (0, 1, 2, 4, 6, 8, 10, 12, 24, 30, 36, 42, and 48 h) after HIV-1 infection. The final concentrations of compounds are described in Materials and Methods. Viral activity according to the timing of drug addition was measured as F-Luc activity at 54 h after infection. The relative activities are represented as the mean ± SD (n = 3) compared with the activity observed 54 h post-infection. The relative time frames associated with each HIV-1 infection step are defined based on the time frame of susceptibility to the drug that blocks that particular infection step. […] At 16 h after infection, the viral reverse transcription (RT) product (viral cDNA) level was determined by quantitative real-time PCR (RT-qPCR) using gag and 18S rRNA primer sets and represented as the mean ± SD (n = 3) normalized against the amount of the 18S rRNA compared with the DMSO control. **P < 0.01 compared with the vehicle (DMSO). […] At 40 h after infection, cellular chromosomal DNA was purified, and the integrated proviral DNA was detected through nested Alu-PCR amplification.
(§2) The activity of HIV-1 RT was determined as previously described with some minor modifications ([66][–][68]). […] The relative levels of RT products were analyzed using the ΔΔCt-method, as described above. […]

[2] = test system: reverse transcription of the infected virus; assay: Viral reverse transcription product (viral cDNA) in infected A3.01 cells, RT-qPCR; format: cell-based, HIV-1; details: 1.5 µM, 16 h after infection
Protocol: as §1, §2

[3] = biological target: T2, interaction between Tat and cyclin T1 (Human immunodeficiency virus type 1 group M subtype B, UniProt P04608); assay: Co-immunoprecipitation of Tat and cyclin T1; format: cell-based; details: co-immunoprecipitation in transfected cells
T2 construct: expressed in transfected cells; the methods paragraph b60 says 293T
Protocol: The co-immunoprecipitation assay was performed as previously described ([12], [58]). Briefly, 293T cells were transfected with Tat-expressing plasmids (pcDNA3–Flag–Tat86) using Lipofectamine 2000 (Invitrogen). After 48 h, the cells were lysed in an immunoprecipitation buffer [250 mM NaCl, 0.5% NP-40, 50 mM Tris-HCl (pH 7.5), 5 mM ethylenediaminetetraacetic acid, and protease/phosphatase inhibitor cocktail]. The cell lysates were subsequently incubated with an anti-Flag monoclonal antibody (M2; Sigma-Aldrich) at 4°C. After overnight incubation, the immune complex was then pulled down with protein A/G-agarose beads (Santa Cruz Biotechnology) and analyzed using western blotting.
Supplementary Figure S6. A. Quantitativereal-timePCRofHIV-1mRNAfromHIV-1 NL4-3-infectedA3.01cells treated oruntreatedwiththeindicatedcompoundswasperformedusingthe envprimerset,andlevelswerenormalizedtothoseof gapdh. Thedata
represent the relative fold change compared with DMSO treatment (n = 3).B. Effect of the compounds on NF-κB promoter activity assessed using a luciferase assay. […]
pCMV-R-Luc (200 ng). […] Theluciferase activity was determined using aDual-GloTMLuciferase assaykit (Promega).
The data normalized to the R-Luc activity are expressed as themean±SD (n = 3) of the relative fold activitycompared with the no-PMA(vehicle) treatment.C. […]

T2 sequence (P04608 whole entry): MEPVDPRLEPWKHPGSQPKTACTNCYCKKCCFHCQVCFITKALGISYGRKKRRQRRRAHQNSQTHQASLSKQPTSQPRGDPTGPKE

Row | SMILES | inhibitory effect on in vitro integrase activity [1] | inhibitory effect on reverse transcription of the infected virus [2] | change in interaction between Tat and cyclin T1 [3]
1 | Cc1[nH]c2ccc(-c3nnc(SCC(=O)N4CCCC4)o3)cc2c1C [Compound 13, 2-((5-(2,3-Dimethyl-1H-indol-5-yl)-1,3,4-oxadiazol-2-yl)thio)-1-(pyrrolidin-1-yl)ethan-1-one] | did not exhibit the inhibitory effect | did not exhibit the inhibitory effect | no changes were observed
2 | Cc1[nH]c2ccc(-c3nnc(SCC(=O)N4CCCCC4)o3)cc2c1C [Compound 9, 2-((5-(2,3-Dimethyl-1H-indol-5-yl)-1,3,4-oxadiazol-2-yl)thio)-1-(piperidin-1-yl)ethan-1-one] | did not exhibit the inhibitory effect | did not exhibit the inhibitory effect | no changes were observed

Source: article PMC11459959, “Discovery of new acetamide derivatives of 5-indole-1,3,4-oxadiazol-2-thiol as inhibitors of HIV-1 Tat-mediated viral transcription” (Antimicrobial Agents and Chemotherapy, 2024)
